From ChEMBL document CHEMBL1201862, “PubChem BioAssay data set” (2004) come the findings set out here.

Holding throughout (type): functional
For one test, the target named is Hexokinase (Trypanosoma brucei, UniProt Q38C41). In words: Confirmation assay for inhibitors of Trypanosoma brucei hexokinase 1-Analogue-first series. [Related pubchem assays (depositor defined):AID1430, AID1632, AID2516, AID2560, AID2579, AID2600, AID449725, AID492951].
Test [1] addresses T1, Short transient receptor potential channel 4 (Mus musculus, UniProt Q9QUQ5).
T1 sequence (Q9QUQ5 whole entry): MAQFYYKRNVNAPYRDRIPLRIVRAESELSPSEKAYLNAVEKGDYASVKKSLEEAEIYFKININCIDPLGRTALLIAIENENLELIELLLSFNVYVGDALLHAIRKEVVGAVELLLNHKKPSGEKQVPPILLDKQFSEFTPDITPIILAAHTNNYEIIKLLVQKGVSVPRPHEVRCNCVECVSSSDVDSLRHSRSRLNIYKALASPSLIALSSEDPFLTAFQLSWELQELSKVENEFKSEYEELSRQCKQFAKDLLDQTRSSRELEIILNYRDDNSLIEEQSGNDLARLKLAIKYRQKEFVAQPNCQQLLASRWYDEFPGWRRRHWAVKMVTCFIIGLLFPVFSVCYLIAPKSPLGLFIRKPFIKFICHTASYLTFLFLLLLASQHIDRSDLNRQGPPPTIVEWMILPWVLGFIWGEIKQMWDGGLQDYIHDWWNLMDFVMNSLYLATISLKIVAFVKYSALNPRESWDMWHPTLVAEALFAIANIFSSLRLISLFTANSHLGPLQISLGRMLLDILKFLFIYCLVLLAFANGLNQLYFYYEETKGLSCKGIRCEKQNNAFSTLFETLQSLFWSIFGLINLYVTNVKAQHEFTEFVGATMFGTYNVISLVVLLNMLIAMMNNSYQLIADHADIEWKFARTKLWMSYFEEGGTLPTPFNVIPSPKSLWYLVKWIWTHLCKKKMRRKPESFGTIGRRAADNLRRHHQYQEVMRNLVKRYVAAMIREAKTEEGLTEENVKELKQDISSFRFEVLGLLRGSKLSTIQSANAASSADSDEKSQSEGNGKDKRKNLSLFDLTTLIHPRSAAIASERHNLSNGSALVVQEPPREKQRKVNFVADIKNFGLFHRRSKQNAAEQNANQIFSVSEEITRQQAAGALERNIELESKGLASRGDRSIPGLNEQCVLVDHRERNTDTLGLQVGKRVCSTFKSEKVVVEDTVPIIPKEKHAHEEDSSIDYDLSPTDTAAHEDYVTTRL
Kind of test: potentiation of DAMGO-evoked TRPC4 calcium signal – cell-based, HEK293 TRPC4/mu-opioid, Fluo-4 calcium, EC20 DAMGO, dose response (AID 434941).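 Also: HEK293 cells coexpressing TRPC4 and mu opioid receptor stimulated by EC20 DAMGO.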

Test [2] concerns the target Intestinal-type alkaline phosphatase (Homo sapiens, UniProt P09923). Kind of test: Dose Response confirmation of uHTS hits from a small molecule inhibitors of human intestinal alkaline phosphatase via a luminescent assay. [Related pubchem assays (depositor defined):AID2544, AID2574].
Test [3] in a line: non-specific 3'UTR reporter inhibition in Clone20-Shn3RL – cell-based, Renilla luciferase, cherry-picked, counter-screen for Shn3 inhibitor project, dose response (AID 624133).
Test [4] in a line: Luminescence Cell-Based Dose Retest to Confirm Inhibitors of Cancer Stem Cells. [Related pubchem assays (depositor defined):AID2717, AID2721]. The following applies: Homo sapiens.
Test [5] can be described thus: reduction of Shn3 3'UTR-driven luciferase in osteoblasts – cell-based, Clone20 osteoblasts, firefly luciferase, cherry-picked, dose response (AID 624132).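 Also: firefly luciferase luminescence from reporter carrying the Shn3 3'UTR in osteoblasts.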
For another test, the system named is HeLa. Kind of test: viability loss in HeLa cells – cell-based, 24 h, cherry-picked samples, cytotoxicity control, dose response (AID 504726).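 Also: potency for cytotoxicity as loss of luminescence signal.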 To be noted: Homo sapiens.

Activity calls are given as the source filed them. Some results are limits rather than exact numbers.

Sequence of Hexokinase (Q38C41 whole entry): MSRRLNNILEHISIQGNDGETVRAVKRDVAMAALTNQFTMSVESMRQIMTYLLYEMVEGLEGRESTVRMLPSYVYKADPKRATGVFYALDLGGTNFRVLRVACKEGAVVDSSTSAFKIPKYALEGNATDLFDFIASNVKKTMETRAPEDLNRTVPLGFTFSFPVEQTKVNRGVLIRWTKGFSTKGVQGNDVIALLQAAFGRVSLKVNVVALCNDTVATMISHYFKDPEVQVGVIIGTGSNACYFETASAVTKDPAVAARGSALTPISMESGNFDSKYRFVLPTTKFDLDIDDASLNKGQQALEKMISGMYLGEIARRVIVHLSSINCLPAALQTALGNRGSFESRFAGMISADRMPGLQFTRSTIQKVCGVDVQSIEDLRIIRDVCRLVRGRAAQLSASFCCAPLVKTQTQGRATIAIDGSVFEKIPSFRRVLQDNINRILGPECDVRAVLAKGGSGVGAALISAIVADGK
Sequence of Intestinal-type alkaline phosphatase (P09923 whole entry): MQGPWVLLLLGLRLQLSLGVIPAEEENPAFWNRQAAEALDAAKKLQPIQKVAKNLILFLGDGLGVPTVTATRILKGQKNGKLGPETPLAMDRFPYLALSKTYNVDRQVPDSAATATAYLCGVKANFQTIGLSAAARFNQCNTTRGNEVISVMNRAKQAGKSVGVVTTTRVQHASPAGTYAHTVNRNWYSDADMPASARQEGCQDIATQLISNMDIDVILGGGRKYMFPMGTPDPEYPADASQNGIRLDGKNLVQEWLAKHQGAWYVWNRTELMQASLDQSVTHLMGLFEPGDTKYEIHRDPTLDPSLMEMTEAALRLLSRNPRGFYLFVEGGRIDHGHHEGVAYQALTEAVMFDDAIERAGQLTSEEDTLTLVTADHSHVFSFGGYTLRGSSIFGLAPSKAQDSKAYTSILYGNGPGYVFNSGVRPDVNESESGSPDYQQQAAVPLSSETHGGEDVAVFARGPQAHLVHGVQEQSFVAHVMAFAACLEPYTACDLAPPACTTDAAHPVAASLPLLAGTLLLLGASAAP

By IC50 is commonly meant the point on the concentration scale where inhibition reaches its midpoint. Regarding `COc1ccc(C(=O)Nc2cc(F)cc(F)c2O)cc1`, the IC50 on Hexokinase was > 25 µM (inactive).
Broadly, the EC50 is the concentration giving half of the maximal effect. On to `O=C(Nc1cccc(Cl)c1)N1CCN(C/C=C/c2ccccc2)CC1`, for which the EC50 in test [1] was 0.12 µM (active).
Turning to `Cc1ccc(NC(=O)c2ccncc2)cc1[N+](=O)[O-]`, in test [2], the IC50 is > 100 µM (inactive).
A word on the AC50: it is the concentration giving half of the maximal activity seen. Consider `Cc1ccc(-c2nnc(N3CCC(C)CC3)c3ccccc23)cc1C`, for which the AC50 in test [3] is 8.42 µM (active); in test [4], 4.62 µM (active); in test [5] it was 6.41 µM (active). Further, in test [1], the EC50 is 3.35 µM (active).
Take `CCc1sc(C(=O)NNC(=O)CNC(=O)c2ccccc2F)cc1C`: the AC50 in the test on HeLa is 73 µM (active).
